Source: ChEMBL document CHEMBL1201862, “PubChem BioAssay data set” (2004)
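Grown in 96-well plates, cells were treated for 48 hours with each compound at five concentrations. Insufficient inhibition: endpoint recorded as highest concentration tested. Abbreviation: GI50, concentration required for 50% inhibition of growth.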 The source made the active and inactive calls. Rule as the data show it: active = GI50 up to about 1.1 µM and inactive = higher.

Key:
Assay in all cases: growth of human tumour cells (NCI), 48 h
[1] = system: TK-10
[2] = system: NCI-H23
[3] = system: HCT-15
[4] = system: EKVX
[5] = system: M14
[6] = system: UO-31
[7] = system: SF-295
[8] = system: SK-MEL-5
[9] = system: OVCAR-8
[10] = system: A498
[11] = system: CAKI-1
[12] = system: SK-MEL-28
[13] = system: A549
[14] = system: OVCAR-3
[15] = system: NCI-H226
[16] = system: MOLT-4
[17] = system: RPMI-8226
[18] = system: MDA-MB-435
[19] = system: MDA-MB-231
[20] = system: Hs-578T

| SMILES | GI50 [1] | GI50 [2] | GI50 [3] | GI50 [4] | GI50 [5] | GI50 [6] | GI50 [7] | GI50 [8] | GI50 [9] | GI50 [10] | GI50 [11] | GI50 [12] | GI50 [13] | GI50 [14] | GI50 [15] | GI50 [16] | GI50 [17] | GI50 [18] | GI50 [19] | GI50 [20] |
| --- | --- | --- | --- | --- | --- | --- | --- | --- | --- | --- | --- | --- | --- | --- | --- | --- | --- | --- | --- | --- |
| COc1c(C2=NC(C(C)C)CO2)ccc2ccccc12 (stereo not drawn) | 88.3 µM (inactive) | 34.6 µM (inactive) | 5.11 µM | 37.1 µM (inactive) | 63.5 µM (inactive) | 31.4 µM (inactive) | 26.7 µM (inactive) | 14.2 µM (inactive) | 41.5 µM (inactive) | 27.3 µM (inactive) | 61.5 µM (inactive) | 38.6 µM (inactive) | 32.7 µM (inactive) | 37.2 µM (inactive) | 30.6 µM (inactive) | 14.2 µM (inactive) | 22.6 µM (inactive) | – | – | – |
| CC(=O)OCC1OC(n2c(-c3ccccc3)c(/N=N/c3ccc(C)cc3)c(C)c(C#N)c2=S)C(OC(C)=O)C(OC(C)=O)C1OC(C)=O (stereo not drawn) | 23.6 µM (inactive) | 13.4 µM (inactive) | 21.1 µM | – | 3.16 µM (inactive) | > 10 µM (inactive) | 23.6 µM (inactive) | – | – | 2.78 µM (inactive) | 22.9 µM (inactive) | 26.4 µM (inactive) | 9.62 µM (inactive) | 19.7 µM (inactive) | – | 3.67 µM (inactive) | 8 µM (inactive) | 9.06 µM (inactive) | 17.7 µM (inactive) | – |
| NS(=O)(=O)c1ccc(NC(=O)c2cccc3c(=O)c4ccccc4[nH]c23)cc1 | 89.1 µM (inactive) | 67.3 µM (inactive) | > 100 µM | > 100 µM (inactive) | > 100 µM (inactive) | 18.6 µM (inactive) | > 100 µM (inactive) | 65.5 µM (inactive) | > 100 µM (inactive) | 51.3 µM (inactive) | > 100 µM (inactive) | 54.1 µM (inactive) | > 100 µM (inactive) | > 100 µM (inactive) | 23.4 µM (inactive) | 18.2 µM (inactive) | 28.4 µM (inactive) | – | – | – |
| C/C=C/c1c(O)c(=O)c2c(OC)cc(OC)c3c4c(OC)cc(OC)c5c(=O)c(O)c(/C=C/C)c(c1c23)c54 | > 10 µM (inactive) | 7.59 µM (inactive) | 6.49 µM | 16.6 µM (inactive) | 9.42 µM (inactive) | 1.64 µM (inactive) | 44.5 µM (inactive) | 5.73 µM (inactive) | 6.35 µM (inactive) | 32.6 µM (inactive) | 6.14 µM (inactive) | 16.6 µM (inactive) | 5.97 µM (inactive) | 3.99 µM (inactive) | < 0.01 µM (active) | 4.03 µM (inactive) | 6.92 µM (inactive) | 5.82 µM (inactive) | 10.4 µM (inactive) | – |
| Cc1ccc(Nc2nc3c(s2)C(=O)c2ccccc2C3=O)cc1 | 7.26 µM (inactive) | 1.82 µM (inactive) | 1.94 µM | 5.14 µM (inactive) | 1.78 µM (inactive) | 2.03 µM (inactive) | 1.6 µM (inactive) | 1.75 µM (inactive) | 2.18 µM (inactive) | 16.4 µM (inactive) | 1.63 µM (inactive) | 1.62 µM (inactive) | 2.16 µM (inactive) | 1.52 µM (inactive) | 19.4 µM (inactive) | 1.04 µM (active) | 1.23 µM (inactive) | – | – | – |
| O=C(/C(=C/c1ccccc1)c1ccccc1)N1c2ccccc2CC1c1c[nH]c2ccccc12 (stereo not drawn) | 45.7 µM (inactive) | 15 µM (inactive) | 7.76 µM | 25.2 µM (inactive) | 9.18 µM (inactive) | 5.11 µM (inactive) | 7.62 µM (inactive) | 21.7 µM (inactive) | > 100 µM (inactive) | > 100 µM (inactive) | 36.1 µM (inactive) | > 100 µM (inactive) | 11 µM (inactive) | 3.05 µM (inactive) | 41.1 µM (inactive) | 3.33 µM (inactive) | 15.6 µM (inactive) | – | – | – |
| Nc1ccn(C2CC(O)C(COP(=O)(S)OC3CC(n4ccc(N)nc4=O)OC3CO)O2)c(=O)n1 (stereo not drawn) | > 100 µM (inactive) | > 100 µM (inactive) | > 100 µM | > 100 µM (inactive) | > 100 µM (inactive) | > 100 µM (inactive) | > 100 µM (inactive) | > 100 µM (inactive) | > 100 µM (inactive) | – | > 100 µM (inactive) | > 100 µM (inactive) | > 100 µM (inactive) | > 100 µM (inactive) | – | > 100 µM (inactive) | > 100 µM (inactive) | > 100 µM (inactive) | > 100 µM (inactive) | > 100 µM (inactive) |
| Cc1ccc(NC(=O)C(=O)C2NC(=S)NC2=O)c([N+](=O)[O-])c1 (stereo not drawn) | > 100 µM (inactive) | > 100 µM (inactive) | > 100 µM | 57.3 µM (inactive) | > 100 µM (inactive) | > 100 µM (inactive) | > 100 µM (inactive) | > 100 µM (inactive) | > 100 µM (inactive) | > 100 µM (inactive) | > 100 µM (inactive) | > 100 µM (inactive) | > 100 µM (inactive) | > 100 µM (inactive) | > 100 µM (inactive) | > 100 µM (inactive) | > 100 µM (inactive) | – | – | – |
| CC(C)NC(=O)N(Nc1ccccc1)C(C)(C)C | > 100 µM (inactive) | > 100 µM (inactive) | > 100 µM | > 100 µM (inactive) | > 100 µM (inactive) | 96.2 µM (inactive) | > 100 µM (inactive) | > 100 µM (inactive) | > 100 µM (inactive) | > 100 µM (inactive) | > 100 µM (inactive) | > 100 µM (inactive) | > 100 µM (inactive) | > 100 µM (inactive) | > 100 µM (inactive) | > 100 µM (inactive) | – | – | > 100 µM (inactive) | > 100 µM (inactive) |
| O=C(O)CCC(NC(=O)c1ccc(Nc2nc3ccc(C(F)(F)F)cc3nc2C(=O)O)cc1)C(=O)O (stereo not drawn) | > 100 µM (inactive) | > 100 µM (inactive) | > 100 µM | > 100 µM (inactive) | > 100 µM (inactive) | > 100 µM (inactive) | > 100 µM (inactive) | > 100 µM (inactive) | > 100 µM (inactive) | > 100 µM (inactive) | – | – | > 100 µM (inactive) | 69.8 µM (inactive) | > 100 µM (inactive) | > 100 µM (inactive) | > 100 µM (inactive) | > 100 µM (inactive) | > 100 µM (inactive) | > 100 µM (inactive) |
| COc1nc2c(c(=O)[nH]1)N=C(c1ccc(Cl)cc1)CC(c1ccccc1)N2 (stereo not drawn) | – | 49.2 µM (inactive) | 24.2 µM | 29.6 µM (inactive) | 17.3 µM (inactive) | 29.6 µM (inactive) | 23.1 µM (inactive) | 17.6 µM (inactive) | 21.2 µM (inactive) | 33.3 µM (inactive) | 28.2 µM (inactive) | 17.7 µM (inactive) | 33.4 µM (inactive) | 37.8 µM (inactive) | 29.4 µM (inactive) | 35.6 µM (inactive) | 28.4 µM (inactive) | 34 µM (inactive) | 23.8 µM (inactive) | – |
| C=C1C[C@]23CC[C@@H]4C(CO)(CO)CC(=O)C[C@]4(C)[C@@H]2CC[C@H]1C3 | > 100 µM (inactive) | > 100 µM (inactive) | > 100 µM | > 100 µM (inactive) | > 100 µM (inactive) | 78.5 µM (inactive) | > 100 µM (inactive) | – | > 100 µM (inactive) | – | > 100 µM (inactive) | > 100 µM (inactive) | > 100 µM (inactive) | > 100 µM (inactive) | 93.8 µM (inactive) | > 100 µM (inactive) | > 100 µM (inactive) | > 100 µM (inactive) | > 100 µM (inactive) | > 100 µM (inactive) |
| O=C(O/C=C\OC1CCCC1(c1ccccc1)c1ccccc1)c1ccccc1 (stereo not drawn) | 5.01 µM (inactive) | 2.19 µM (inactive) | 2.23 µM | 17.5 µM (inactive) | 2.79 µM (inactive) | 1.87 µM (inactive) | 19.2 µM (inactive) | 10.8 µM (inactive) | 3 µM (inactive) | 23.1 µM (inactive) | > 46.1 µM (inactive) | 5.71 µM (inactive) | 21.4 µM (inactive) | 9.2 µM (inactive) | 19.8 µM (inactive) | 4.29 µM (inactive) | 2.61 µM (inactive) | – | 2.51 µM (inactive) | 7.05 µM (inactive) |
| SC1=C2CCCCCC2=NC2(CCCCCC2)S1 | 24.7 µM (inactive) | 9.12 µM (inactive) | 37.1 µM | 5.62 µM (inactive) | 35.2 µM (inactive) | 11.6 µM (inactive) | 23.6 µM (inactive) | 11.2 µM (inactive) | 28.3 µM (inactive) | – | 31.5 µM (inactive) | 72.9 µM (inactive) | 24.5 µM (inactive) | 20.5 µM (inactive) | 12.4 µM (inactive) | 19 µM (inactive) | 18.5 µM (inactive) | 30.5 µM (inactive) | 36.6 µM (inactive) | 11.6 µM (inactive) |
| C=C1C(=O)C23C(O)C1CC[C@H]2C12CCCC(C)(COC(C)=O)[C@H]1[C@H](O)[C@]3(O)OC2 (stereo partly drawn) | 1.63 µM (inactive) | 1.87 µM (inactive) | 0.817 µM | 4.01 µM (inactive) | 1.1 µM (active) | 1.77 µM (inactive) | 0.891 µM (active) | 1.72 µM (inactive) | 1.7 µM (inactive) | 2.32 µM (inactive) | 1.16 µM (inactive) | 1.14 µM (inactive) | 3.94 µM (inactive) | 1.61 µM (inactive) | 2.44 µM (inactive) | 0.138 µM (active) | 0.318 µM (active) | – | – | 2.77 µM (inactive) |
| COC(=O)c1cnc(Cl)cn1 | > 100 µM (inactive) | 20.1 µM (inactive) | 17.3 µM | 33.3 µM (inactive) | 53.8 µM (inactive) | 20.2 µM (inactive) | > 100 µM (inactive) | 59.2 µM (inactive) | 73.5 µM (inactive) | – | 17.5 µM (inactive) | 53.3 µM (inactive) | > 100 µM (inactive) | – | 35.2 µM (inactive) | 41.4 µM (inactive) | 21 µM (inactive) | 48.4 µM (inactive) | 71.8 µM (inactive) | 50.6 µM (inactive) |
